The record followed here is patent publication US20210308110A1, “ANTIVIRAL COMPOUNDS AND METHOD FOR TREATING RNA VIRAL INFECTION, PARTICULARLY COVID-19” (Senhwa Biosciences, Inc., priority 2020, published 2021).

Structures are written as SMILES. Where only a bound is given, the exact number is not on record here.

Data set [1] relates to SARS-CoV-2. In words: SARS-CoV-2 infection of Vero E6 cells, quantified by N protein expression (IFA / PRNT). Format: cell-based. As to conditions: Severe acute respiratory syndrome coronavirus 2, Vero C1008, Vero E6 cells pretreated 20 hr, infected at MOI=0.01 for 2 days, read-out: IC50 (anti-SARS-CoV-2 activity).
A short description of data set [2]: Cell viability test by Cell Counting Kit-8 (CCK-8). As to conditions: African green monkey. For orientation: Tetrazolium assays rely on reduction of a dye to a coloured formazan, in cell work by metabolically active cells.
For data set [3], the system named is SARS-CoV-2. The data set can be described thus: SARS-CoV-2 plaque reduction neutralization test, plaque formation. It is filed as cell-based. The settings on record: at 1.25 μM.
Data set [4] in a line: in vitro. The settings on record: African green monkey.
In data set [5] the test system is SARS-CoV-2. In words: Mouse challenge with SARS-CoV-2, lung histopathology scoring. Format: in vivo, AAV/hACE2 C57BL/6 mice. As to conditions: 50 mg/kg I.P., AAV/hACE2 mice, day 5 post-SARS-CoV-2 infection; score scale 0-5; 2 out of 5.

As for `O=C1NC(=O)/C(=C/c2cnn3c(NC4CC4)cc(Nc4cc(Cl)ccc4F)nc23)N1` [Compound B], the IC50 (in general, the point on the concentration scale where inhibition reaches its midpoint) in data set [1] is 126 nM. For the same molecule, in data set [2], the CC50 came to 5900 nM. Besides, the “reduction of plaque formation” value in data set [3] was 75%.
For `CCC(CC)COC(=O)[C@H](C)N[P@](=O)(OC[C@H]1O[C@@](C#N)(c2ccc3c(N)ncnn23)[C@H](O)[C@@H]1O)Oc1ccccc1` [Compound E, Remdesivir, reference compound], the CC50 in data set [4] was greater than 5000 nM. Further, the IC50 in data set [1] worked out at 830 nM.
`O=C(O)c1ccc2c(c1)nc(Nc1cccc(Cl)c1)c1ccncc12` [Compound A, Silmitasertib]: in data set [5], the “clinical score of lung histopathology” value is listed as “less than 2”. Further, the IC50 in data set [1] was found to be 2740 nM. This molecule also registered a CC50 in data set [2] greater than 5000 nM. Also, the “reduction of plaque formation” value in data set [3] came out at 75%.
For the molecule `CC(N)C(=O)OCN1C(=O)N/C(=C\c2cnn3c(NC4CC4)cc(Nc4cc(Cl)ccc4F)nc23)C1=O` (stereo not drawn) [Compound C], the IC50 in data set [1] is 97 nM. Further, the CC50 in data set [2] was found to be 4220 nM. Also, the “reduction of plaque formation” value in data set [3] stood at 75%.
